{
  "source": "paper PMC9852063",
  "about": "(Molecular carcinogenesis, 2022)",
  "target": "T1, Doublecortin like kinase 1 (DCLK1) (Homo sapiens, UniProt O15075)",
  "T1 sequence (O15075 1-740)": "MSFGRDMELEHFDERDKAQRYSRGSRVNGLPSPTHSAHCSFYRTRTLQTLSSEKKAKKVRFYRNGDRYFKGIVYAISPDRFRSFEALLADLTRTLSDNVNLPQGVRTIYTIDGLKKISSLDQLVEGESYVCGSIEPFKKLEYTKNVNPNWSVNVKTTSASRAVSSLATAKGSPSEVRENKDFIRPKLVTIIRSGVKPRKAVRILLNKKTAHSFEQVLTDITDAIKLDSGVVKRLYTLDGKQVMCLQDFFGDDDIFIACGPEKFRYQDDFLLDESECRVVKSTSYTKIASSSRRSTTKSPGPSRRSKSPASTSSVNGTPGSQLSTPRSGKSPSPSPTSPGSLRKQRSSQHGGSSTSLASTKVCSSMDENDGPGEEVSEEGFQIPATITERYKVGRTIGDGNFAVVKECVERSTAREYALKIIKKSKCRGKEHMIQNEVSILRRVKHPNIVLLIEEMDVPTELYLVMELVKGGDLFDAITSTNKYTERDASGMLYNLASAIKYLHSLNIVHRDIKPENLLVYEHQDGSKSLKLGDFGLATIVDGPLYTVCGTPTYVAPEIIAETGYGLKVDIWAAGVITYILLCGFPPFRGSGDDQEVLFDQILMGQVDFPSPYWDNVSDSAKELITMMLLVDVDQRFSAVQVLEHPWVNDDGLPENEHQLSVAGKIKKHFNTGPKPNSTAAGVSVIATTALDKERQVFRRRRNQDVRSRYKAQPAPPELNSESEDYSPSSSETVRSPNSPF",
  "test": "SPR with immobilized recombinant DCLK1",
  "format": "binding",
  "data": [
    {"molecule": "O=C1C(=Cc2ccc(F)cc2F)CNCC1=Cc1ccc(F)cc1F", "note": "[DiFiD, 3,5-bis (2,4-difluorobenzylidene)-4-piperidone]", "values": [
      {"measurement": "Kd", "result": 71, "unit": "nM"}
    ]}
  ]
}
